# Measured values taken from article PMC7845594, “Novel Immune Modulators Enhance Caenorhabditis elegans Resistance to Multiple Pathogens” (mSphere, 2021).
# Tested on: C. elegans transcriptome
# Assay: Transcriptome profiling (Affymetrix microarrays), differentially expressed genes
# Type: in vivo, Caenorhabditis elegans
# Settings: for Fold Change: downregulated genes
# Method: To gain additional insight into the effect of LK molecules on C. elegans, young-adult, wild-type worms were treated with each drug at 100 µM for 8 h in the absence of pathogen. RNA was collected, and transcriptome profiling was performed.
# Data were determined using Affymetrix microarrays, as described in Materials and Methods. Download Table S3, XLSX file, 0.07 MB.
# Transcriptome profiling was performed on ∼6,000 wild-type, young adult worms incubated with either LK molecules or DMSO for 8 h. RNA isolation was performed using TRIzol extraction, followed by cleanup using RNeasy columns according to the manufacturer’s protocol. Each condition was analyzed in triplicate. Microarray data have been deposited in the GEO database, accession number GSE137516. […] Clustering and generation of the heat map was performed using Cluster 3.0 ([98]) and Treeview ([99]), respectively. Fold change of genes were normalized to average fold change of that gene over all clustered conditions. Genes and conditions were clustered using Euclidean distance and average linkages. […] Microarray data for non-LK molecules were collected from GEO omnibus. WormEXP was used as a secondary method for confirming statistical significance of potential pathways stimulated by each of the LK molecules ([100]). Gene ontologies were generated using DAVID ([101], [102]).
# [1] = Downregulated genes, Affy_ID 171867_x_at
smiles,measurement,setting,value
CN(C)/N=N/c1ccc(-c2cn(Cc3ccccc3)cn2)cc1 [LK38],Fold Change,"Affy_ID 171867_x_at, listed under genes C09B9.6, F36H12.7, K07F5.1, R05F9.13, R13H9.2, R13H9.4, T13F2.10, T13F2.11, Y59E9AR.1, Y59E9AR.7, ZK354.1",0.2521
same,Fold Change,"Affy_ID 176276_s_at, listed under gene Y69A2AR.25 (LK34) or Y69A2AR.12 (LK38)",0.3902
same,"Fold Change, gene ZK525.1","Downregulated genes, Affy_ID 171849_x_at",0.4368
same,"Fold Change, gene ZK354.10",[1],0.2521
same,"Fold Change, gene ZK354.11",[1],0.2521
same,"Fold Change, gene ZK354.4",[1],0.2521
same,"Fold Change, gene ZK354.5",[1],0.2521
same,"Fold Change, gene ZK525.1","Downregulated genes, Affy_ID 172214_x_at",0.3013
same,"Fold Change, gene ZK484.8","Downregulated genes, Affy_ID 172381_x_at",0.4248
same,"Fold Change, gene ZK546.3","Downregulated genes, Affy_ID 172798_x_at",0.1961
same,"Fold Change, gene ZK546.6","Downregulated genes, Affy_ID 172900_x_at",0.1945
same,"Fold Change, gene ZK354.4","Downregulated genes, Affy_ID 172922_x_at",0.2136
same,"Fold Change, gene ZK354.11","Downregulated genes, Affy_ID 172925_x_at",0.2447
same,"Fold Change, gene ZK354.5","Downregulated genes, Affy_ID 172928_x_at",0.2421
same,"Fold Change, gene ZK550.2","Downregulated genes, Affy_ID 179513_at",0.2459
same,"Fold Change, gene ZK484.5","Downregulated genes, Affy_ID 182193_at",0.3776
same,"Fold Change, gene ZK666.7","Downregulated genes, Affy_ID 194066_s_at",0.2101
same,Fold Change,"Gene C05C12.3, Affy_ID 183355_s_at",0.3153
same,Fold Change,"Gene C08E3.1, Affy_ID 172309_x_at",0.1357
same,Fold Change,"Gene C08E3.13, Affy_ID 172565_x_at",0.1172
same,Fold Change,"Gene C08F11.13, Affy_ID 175229_at",0.2733
same,Fold Change,"Gene C08F11.13, Affy_ID 185001_at",0.09464
same,Fold Change,"Gene C09B9.6, Affy_ID 172903_x_at",0.2435
same,Fold Change,"Gene C14C6.2, Affy_ID 183566_at",0.3131
same,Fold Change,"Gene R01E6.3, Affy_ID 189628_at",0.3184
same,Fold Change,"Gene R03E9.1, Affy_ID 193723_s_at",0.2835
same,Fold Change,"Gene R04B5.9, Affy_ID 191440_at",0.3161
same,Fold Change,"Gene R05F9.13, Affy_ID 172714_x_at",0.2707
same,Fold Change,"Gene R05F9.3, Affy_ID 172725_x_at",0.4569
same,Fold Change,"Gene R05F9.8, Affy_ID 172724_x_at",0.2625
same,Fold Change,"Gene R12C12.1, Affy_ID 190616_at",0.3782
same,Fold Change,"Gene R13H9.2, Affy_ID 172771_x_at",0.2091
same,Fold Change,"Gene R13H9.4, Affy_ID 172770_x_at",0.2077
same,Fold Change,"Gene T01C3.4, Affy_ID 188106_at",0.02377
same,Fold Change,"Gene T02B11.3, Affy_ID 174051_s_at",0.3852
same,Fold Change,"Gene T07C4.4, Affy_ID 178149_s_at",0.3385
same,Fold Change,"Gene T07G12.5, Affy_ID 188496_s_at",0.1128
same,Fold Change,"Gene T08B1.6, Affy_ID 192296_at",0.264
same,Fold Change,"Gene T08B2.12, Affy_ID 184685_s_at",0.1122
same,Fold Change,"Gene T09F5.9, Affy_ID 188947_at",0.335
same,Fold Change,"Gene T13F2.10, Affy_ID 172906_x_at",0.282
same,Fold Change,"Gene T13F2.11, Affy_ID 172905_x_at",0.2555
same,Fold Change,"Gene T14B4.4, Affy_ID 190598_at",0.3119
same,Fold Change,"Gene T15B7.9, Affy_ID 182858_at",0.3485
same,Fold Change,"Gene T20D4.11, Affy_ID 184438_at",0.08285
same,Fold Change,"Gene T22H2.6, Affy_ID 180962_s_at",0.4528
same,Fold Change,"Gene T23B7.1, Affy_ID 172486_x_at",0.4388
same,Fold Change,"Gene T23B12.8, Affy_ID 184855_at",0.1808
same,Fold Change,"Gene T23F4.1, Affy_ID 180223_s_at",0.03953
same,Fold Change,"Gene T23F4.3, Affy_ID 179815_at",0.03894
same,Fold Change,"Gene T27A10.7, Affy_ID 186153_s_at",0.1891
same,Fold Change,"Gene T27E4.7, Affy_ID 173756_at",0.3486
same,Fold Change,"Gene T27E4.7, Affy_ID 173757_s_at",0.3375
same,Fold Change,"Gene T28H11.6, Affy_ID 172704_x_at",0.3336
same,Fold Change,"Gene W04B5.2, Affy_ID 180561_at",0.445
same,Fold Change,"Gene W07B8.5, Affy_ID 191887_s_at",0.336
same,Fold Change,"Gene Y40D12A.2, Affy_ID 191017_at",0.3923
same,Fold Change,"Gene Y43F8B.2, Affy_ID 172568_x_at",0.4361
